{"source": "patent US20070112018A1", "about": "“Treatment of peripheral arterial occlusive disease” (priority 2005, published 2007)", "key": {"C. pneumoniae": {"test_system": "C. pneumoniae", "experiment": "Rabbit model of atherosclerosis accelerated by C. pneumoniae infection, cholesterol diet", "details": "C. pneumoniae-infected rabbits; rifalazil 5 mg/kg or azithromycin 30 mg/kg PO daily 1 week then twice weekly 6 weeks; 19 weeks after beginning treatment", "procedure": "Thirty received three separate C. pneumoniae inoculations performed at 3-week intervals. Similarly, 15 control rabbits were intranasally inoculated with 1 mL of normal saline under the same conditions.\nNineteen weeks after beginning antibiotic treatment, the rabbits were euthanized. After euthanasia, hearts were examined histologically and by immunofluorescence. Animal serum samples were also examined for seropositivity to the infecting organism."}, "[1]": {"experiment": "Phase 1 single-dose study (2.5, 5, 12.5, 25 mg), adverse events", "format": "in vivo, human", "method": "Several Phase 1 studies of rifalazil administration have been carried out using 25 mg single doses. In one such study, sixteen patients received single doses of 25 mg. Overall, 75% of patients (12/16) reported treatment-emergent adverse events (AEs). […] However, for all dose groups, the incidence of AEs was higher for females than for males, and this difference was also observed in the placebo group. At 25 mg, […] of females (31/39) and 55% of males (16/29) reported treatment-emergent AEs. The AEs with an incidence greater than or equal to 10% were: […]"}, "[2]": {"experiment": "Non-clinical oral pharmacokinetics, all species evaluated", "format": "in vivo", "details": "oral administration", "method": "Since the PK profile of rifalazil has been studied in man, only a brief summary of the non-clinical PK is provided. Overall, the absorption, distribution, metabolism, and elimination of rifalazil observed in the animals studied are similar to those observed in man.\nPeak plasma concentrations were observed from 4 to 18 hours after oral administration."}, "[3]": {"details": "human, in vivo", "method": "In another study, three dose levels of rifalazil were administered for the treatment of non-gonococcal urethritis in 170 male patients. Doses used were in this study were single-doses of 2.5, 12.5 mg and 25 mg. Males were between 18-45 years of age with signs or symptoms of urethritis, including urethral discharge."}, "physchem": {"experiment": "physchem", "format": "physicochemical", "method": "Rifalazil is a highly lipophilic molecule having limited solubility in water at physiological pH (approximately 200 ng/mL). Evidence of the highly lipophilic behavior of the molecule is illustrated in the partition coefficient (n-octanol:water) of between 70, 569 and over 900,000 in different experiments (Log P range; 4.9-5.9)."}, "[4]": {"experiment": "Phase 1 Study ABI-1648-006, multiple oral dose pharmacokinetics", "details": "for Tmax / AUC / Cmax / half-life: human, plasma; for AUC0-Tau/Dose Mean / Cmax/Dose Mean: normalized to 1 mg/kg", "procedure": "Study ABI-1648-006 was conducted to evaluate the PK of single and multiple oral doses of 2.5, 5, 12.5, and 25 mg administered to healthy male and female volunteers."}, "[5]": {"experiment": "Single 25 mg rifalazil with Ortho-Novum 1/35 in post-menopausal female volunteers, adverse events", "details": "human, in vivo", "method": "In another study, a single oral dose of 25 mg rifalazil was administered and its effects on ethinyl estradiol and norethindrone levels administered as the contraceptive Ortho-Novum 1/35® in 16 healthy post-menopausal female volunteers for 14 days was determined. The incidence of AEs was similar between the two treatment periods, with 13 (93%) of the 14 subjects included in the safety population experiencing at least 1 AE during dosing with Ortho-Novum 1/35 alone and 12 (86%) during dosing with rifalazil and Ortho-Novum 1/35. Overall, 4 (29%) subjects experienced at least 1 AE considered by the Investigator to be at least possibly related to rifalazil. The most commonly reported rifalazil-related events were nausea (4 subjects, 29%); headache (3 subjects, 21%); and loose stools, feeling hot, rigors, and myalgia (2 subjects each, 14%).\nThe majority of AEs were of mild or moderate intensity. One subject experienced myalgia of severe intensity during dosing with rifalazil and Ortho-Novum 1/35 that was assessed as probably related to study medication. […] Two subjects withdrew from the study because of AEs during the Ortho-Novum 1/35 only dosing period; neither subject received rifalazil."}, "[6]": {"details": "human, in vivo", "remark": "listed apart in the source"}}, "data": [{"smiles": "CO[C@H]1/C=C/O[C@@]2(C)Oc3c(C)c(O)c4c(=O)c(c5oc6cc(N7CCN(CC(C)C)CC7)cc(O)c6nc-5c4c3C2=O)NC(=O)/C(C)=C\\C=C\\[C@H](C)[C@H](O)[C@@H](C)[C@@H](O)[C@@H](C)[C@H](OC(C)=O)[C@@H]1C", "note": "[rifalazil, 3′-hydroxy-5′-(4-isobutyl-1-piperazinyl) benzoxazinorifamycin]", "values": [{"measurement": "Plaque Area Stenosis (%)", "setting": "C. pneumoniae", "value": 24.2, "unit": "%"}, {"measurement": "males reporting treatment-emergent AEs", "setting": "[1]; at 25 mg (16/29)", "value": 55, "unit": "%"}, {"measurement": "females reporting treatment-emergent AEs", "setting": "[1]; at 25 mg (31/39)", "value": 88, "unit": "%"}, {"measurement": "incidence of Bacteria in urine", "setting": "[1]; single dose 25 mg", "value": 19, "unit": "%"}, {"measurement": "incidence of Blood present in urine", "setting": "[1]; single dose 25 mg", "value": 13, "unit": "%"}, {"measurement": "incidence of Body temperature increased", "setting": "[1]; single dose 25 mg", "value": 25, "unit": "%"}, {"measurement": "incidence of Headache", "setting": "[1]; single dose 25 mg", "value": 38, "unit": "%"}, {"measurement": "incidence of Lymphocyte count decreased", "setting": "[1]; single dose 25 mg", "value": 31, "unit": "%"}, {"measurement": "incidence of Monocyte count increased", "setting": "[1]; single dose 25 mg", "value": 13, "unit": "%"}, {"measurement": "incidence of Nausea", "setting": "[1]; single dose 25 mg", "value": 13, "unit": "%"}, {"measurement": "incidence of Neutrophil count increased", "setting": "[1]; single dose 25 mg", "value": 13, "unit": "%"}, {"measurement": "incidence of Pharyngitis", "setting": "[1]; single dose 25 mg", "value": 13, "unit": "%"}, {"measurement": "incidence of White blood cells (WBCs) in urine", "setting": "[1]; single dose 25 mg", "value": 19, "unit": "%"}, {"measurement": "patients reporting treatment-emergent adverse events", "setting": "[1]; single dose 25 mg, 16 patients", "value": 75, "unit": "%"}, {"measurement": "Cmax and AUC as a function of dose", "setting": "[2]", "value": "dose-dependent but not dose-proportional"}, {"measurement": "deaths, serious AEs, or discontinuations due to AEs", "setting": "[3]", "value": "No deaths, serious AEs, or discontinuations due to AEs"}, {"measurement": "incidence of AEs considered possibly related to study drug", "setting": "[3]; male", "value": 23, "unit": "%"}, {"measurement": "incidence of clinically significant laboratory abnormalities", "setting": "[3]; male", "value": 21, "unit": "%"}, {"measurement": "partition coefficient (n-octanol:water)", "setting": "physchem", "value": "70, 569-900,000"}, {"measurement": "logP", "setting": "physchem; n-octanol:water, different experiments, read-out: Log P range", "value": "4.9 to 5.9"}, {"measurement": "solubility", "setting": "physchem; pH 7.4, aqueous buffer, physiological pH, read-out: solubility in water", "value": "~0.2", "unit": "µg/mL"}, {"measurement": "Tmax", "setting": "[4]; both, po", "value": "4 to 6.3", "unit": "h"}, {"measurement": "AUC", "setting": "[4]; female, oral, 2.5 mg", "value": 98.2, "unit": "ng·h/mL"}, {"measurement": "Cmax", "setting": "[4]; female, oral, 2.5 mg", "value": 7, "unit": "ng/mL"}, {"measurement": "Tmax", "setting": "[4]; female, oral, 2.5 mg", "value": 4.3, "unit": "h"}, {"measurement": "half-life", "setting": "[4]; female, oral, 2.5 mg", "value": 5.84, "unit": "days"}, {"measurement": "AUC", "setting": "[4]; female, oral, 5 mg", "value": 197, "unit": "ng·h/mL"}, {"measurement": "Cmax", "setting": "[4]; female, oral, 5 mg", "value": 14.3, "unit": "ng/mL"}, {"measurement": "Tmax", "setting": "[4]; female, oral, 5 mg", "value": 5.3, "unit": "h"}, {"measurement": "half-life", "setting": "[4]; female, oral, 5 mg", "value": 7.23, "unit": "days"}, {"measurement": "AUC", "setting": "[4]; female, oral, 12.5 mg", "value": 339, "unit": "ng·h/mL"}, {"measurement": "Cmax", "setting": "[4]; female, oral, 12.5 mg", "value": 19.1, "unit": "ng/mL"}, {"measurement": "Tmax", "setting": "[4]; female, oral, 12.5 mg", "value": 6.3, "unit": "h"}, {"measurement": "half-life", "setting": "[4]; female, oral, 12.5 mg", "value": 3.6, "unit": "days"}, {"measurement": "half-life", "setting": "[4]; female, po", "value": "3.58 to 5.83", "unit": "days"}, {"measurement": "AUC0-Tau/Dose Mean", "setting": "[4]; females, 2.5 mg QD × 5 days", "value": 2540.1}, {"measurement": "Cmax/Dose Mean", "setting": "[4]; females, 2.5 mg QD × 5 days", "value": 184.1}, {"measurement": "AUC0-Tau/Dose Mean", "setting": "[4]; females, 5 mg QD × 5 days", "value": 2539.0}, {"measurement": "Cmax/Dose Mean", "setting": "[4]; females, 5 mg QD × 5 days", "value": 183.6}, {"measurement": "AUC0-Tau/Dose Mean", "setting": "[4]; females, 12.5 mg × 2 doses", "value": 1614.0}, {"measurement": "Cmax/Dose Mean", "setting": "[4]; females, 12.5 mg × 2 doses", "value": 90.6}, {"measurement": "AUC", "setting": "[4]; male, oral, 2.5 mg", "value": 178, "unit": "ng·h/mL"}, {"measurement": "Cmax", "setting": "[4]; male, oral, 2.5 mg", "value": 8.5, "unit": "ng/mL"}, {"measurement": "Tmax", "setting": "[4]; male, oral, 2.5 mg", "value": 4.3, "unit": "h"}, {"measurement": "half-life", "setting": "[4]; male, oral, 2.5 mg", "value": 5.6, "unit": "days"}, {"measurement": "AUC", "setting": "[4]; male, oral, 5 mg", "value": 261, "unit": "ng·h/mL"}, {"measurement": "Cmax", "setting": "[4]; male, oral, 5 mg", "value": 17.3, "unit": "ng/mL"}, {"measurement": "Tmax", "setting": "[4]; male, oral, 5 mg", "value": 4, "unit": "h"}, {"measurement": "half-life", "setting": "[4]; male, oral, 5 mg", "value": 4.94, "unit": "days"}, {"measurement": "AUC", "setting": "[4]; male, oral, 12.5 mg", "value": 398, "unit": "ng·h/mL"}, {"measurement": "Cmax", "setting": "[4]; male, oral, 12.5 mg", "value": 20.9, "unit": "ng/mL"}, {"measurement": "Tmax", "setting": "[4]; male, oral, 12.5 mg", "value": 6.2, "unit": "h"}, {"measurement": "half-life", "setting": "[4]; male, oral, 12.5 mg", "value": 5.01, "unit": "days"}, {"measurement": "half-life", "setting": "[4]; male, po", "value": "4.92 to 5.58", "unit": "days"}, {"measurement": "AUC0-Tau/Dose Mean", "setting": "[4]; males, 2.5 mg QD × 5 days", "value": 5788.5}, {"measurement": "Cmax/Dose Mean", "setting": "[4]; males, 2.5 mg QD × 5 days", "value": 279.2}, {"measurement": "AUC0-Tau/Dose Mean", "setting": "[4]; males, 5 mg QD × 5 days", "value": 4152.6}, {"measurement": "Cmax/Dose Mean", "setting": "[4]; males, 5 mg QD × 5 days", "value": 273.7}, {"measurement": "AUC0-Tau/Dose Mean", "setting": "[4]; males, 12.5 mg × 2 doses", "value": 2357.9}, {"measurement": "Cmax/Dose Mean", "setting": "[4]; males, 12.5 mg × 2 doses", "value": 124.2}, {"measurement": "subjects experiencing at least 1 AE", "setting": "[5]; female", "value": 86, "unit": "%"}, {"measurement": "deaths or other serious AEs", "setting": "[5]", "value": "No deaths or other serious AEs"}, {"measurement": "subjects with transient Grade 3 decreases in absolute lymphocyte count (ALC<0.5×10^3/mm^3)", "setting": "[5]", "value": "two"}, {"measurement": "overall extent of metabolism", "setting": "[6]", "value": "less than 3 % of the administered dose"}]}]}
